Broadly, the IC50 is the concentration at which inhibition is half-maximal.

The record followed here is patent US8557800B2, “Sphingosine kinase inhibitors” (Apogee Biotechnology Corporation, priority 2005, dated 2013).

Read-outs that look alike come from different tables or passages of the source.

For test [1], the system named is MCF-7 human breast adenocarcinoma cells. Briefly: Cytotoxicity, SRB binding assay. Format: cell-based. On the procedure: (§1) To further assess the biological efficacies of the Compounds in intact cells, each Compound was evaluated for cytotoxicity using human cancer cell lines. These experiments followed methods that have been extensively used. Cell lines tested included MCF-7 human breast adenocarcinoma cells and MCF-10A non-transformed human breast epithelial cells. The indicated cell lines were treated with varying doses of the test Compound for 48 h. Cell survival was then determined using the SRB binding assay (Skehan et al., 1990, J Natl Cancer Inst 82: 1107), and the concentration of compound that inhibited proliferation by 50% (the IC50) was calculated. Values (in μM) represent the mean±sd for replicate trials.

Test [2] relates to MCF-10A non-transformed human breast epithelial cells. In words: Cytotoxicity, SRB binding assay. Format: cell-based. To be noted: 48 h. As to the method: as §1
A general note: Sulforhodamine B stains cellular protein and so reports cell mass.

In a further test the test system is recombinant human SK. In words: Inhibition of recombinant human SK, LC/MS/MS assay. Format: biochemical. The conditions noted are these: 6 μg/ml compound. As to the method:
SK activity is measured by incubation of the recombinant SK with [^3H]sphingosine and 1 mM ATP under defined conditions, followed by extraction of the assay mixture with chloroform:methanol under basic conditions. […] Radioactivity in aliquots of the aqueous phase is then quantified as a measure of [^3H]S1P formation.
In an alternate assay procedure, the recombinant human SK was incubated with unlabeled sphingosine and ATP as described above. After 30 minutes, the reactions were terminated by the addition of acetonitrile to directly extract the newly synthesized S1P. The amount of S1P in the samples is then quantified as follows. C17 base D-erythro-sphingosine and C17 SIP are used as internal standards for sphingosine and S1P, respectively. […] The lipids are then fractionation by High-Performance Liquid Chromatography using a C8-reverse phase column eluted with 1 mM methanolic ammonium formate/2 mM aqueous ammonium formate. […] Calibration curves are generated by plotting the peak area ratios of the synthetic standards for each sphingolipid, and used to determine the normalized amounts of sphingosine and S1P in the samples.
Each Compound of this invention was tested for its ability to inhibit recombinant SK using the LC/MS/MS assay described above.

Setting [3] is: MCF7, inhibition of cell proliferation, 48 h, read-out: MCF-7 IC50.
Setting [4] is: inhibition of cell proliferation, read-out: MCF-10A IC50.

Consider `COC(=O)C(C(=O)OC)C(=O)C12CC3CC(C1)CC(c1ccc(Cl)cc1)(C3)C2` [Compound 129, 2-[3-(4-Chloro-phenyl)-adamantane-1-carbonyl]-malonic acid dimethyl ester], for which the concentration for half-maximal inhibition (IC50) amounted to 16 µM in test [1] (setting [3]) and 105 µM in test [2] (setting [4]).

In the case of `CC(=O)C12CC3CC(C1)CC(c1ccc(F)cc1)(C3)C2` [Compound 126, 1-[3-(4-Fluoro-phenyl)-adamantan-1-yl]-ethanone], the half-maximal inhibitory concentration (IC50) in test [1] (setting [3]) came to 2 µM; in test [2] (setting [4]) it was 6 µM.

As to `O=C(O)C12CC3CC(C1)CC(c1ccc(Cl)cc1)(C3)C2` [Compound 123, 3-(4-Chloro-phenyl)-adamantane-1-carboxylic acid], the IC50 in test [1] (setting [3]) stood at 48 µM; in test [2] (setting [4]), 95 µM.

`CC(NC1CCN(C)CC1)C12CC3CC(CC(c4ccccc4)(C3)C1)C2` (stereo not shown) [Compound 105, (1-Methyl-piperidin-4-yl)-[1-(3-phenyl-adamantan-1-yl)-ethyl]-amine]: the 50% inhibitory concentration (IC50) in test [1] (setting [3]) was 5 µM; in test [2] (setting [4]), 14 µM.

For `COC(=O)C(C(=O)OC)C(=O)C12CC3CC(CC(C3)C1)C2` [Compound 128, 2-(Adamantane-1-carbonyl)-malonic acid dimethyl ester], the figures for the concentration for half-maximal inhibition (IC50) in test [1] (setting [3]) and in test [2] (setting [4]) were 34 µM and 63 µM, respectively.

As to `CC(Nc1ccccc1)C12CC3CC(CC(c4ccc(Cl)cc4)(C3)C1)C2` (stereo not shown) [Compound 95, {1-[3-(4-Chloro-phenyl)-adamantan-1-yl]-ethyl}-phenyl-amine], the results for the IC50 in test [1] (setting [3]) and in test [2] (setting [4]) were 22 µM and 68 µM, respectively.

Take `CC(=O)C12CC3CC(CC(C3)C1)C2` [Compound 124, 1-Adamantan-1-yl-ethanone]: the IC50 in test [1] (MCF7, 48 h, read-out: MCF-7 IC50 (μM)) is 11 µM; in test [2] (read-out: MCF-10A IC50 (μM)), 105 µM.

Turning to `CC(NCc1ccccc1)C12CC3CC(CC(C3)C1)C2` (stereo not shown) [Compound 96, (1-Adamantan-1-yl-ethyl)-benzyl-amine], the half-inhibitory concentration (IC50) in test [1] (setting [3]) and in test [2] (setting [4]) was 9 µM in each case.

Regarding `O=C(O)C12CC3CC(C1)CC(c1ccccc1)(C3)C2` [Compound 121, 3-Phenyl-adamantane-1-carboxylic acid], the IC50 in test [1] (setting [3]) was determined as 13 µM; in test [2] (setting [4]), 176 µM.

Take `CC(=O)C12CC3CC(C1)CC(c1ccccc1)(C3)C2` [Compound 125, 1-(3-Phenyl-adamantan-1-yl)-ethanone]: the IC50 in test [1] (setting [3]) turned out to be 8 µM; in test [2] (setting [4]) it was 59 µM.

For the compound `CC(NC1CCN(C)CC1)C12CC3CC(CC(C3)C1)C2` (stereo not shown) [Compound 104, (1-Adamantan-1-yl-ethyl)-(1-methyl-piperidin-4-yl)-amine], the half-inhibitory concentration (IC50) in test [1] (setting [3]) stood at 34 µM. The “Recombinant SK (% inhibition)” value in the test on recombinant human SK is on record as 0%.

As for `CN1CCCC1CCNC(=O)C12CC3CC(CC(C3)C1)C2` (stereo not shown) [Compound 56, Adamantane-1-carboxylic acid [2-(1-methyl-pyrrolidin-2-yl)-ethyl]-amide], the 50% inhibitory concentration (IC50) in test [1] (setting [3]) was determined as 10 µM. Further, the “Recombinant SK (% inhibition)” value in the test with recombinant human SK was found to be 33%.

`COc1ccc(CCNC(=O)C23CC4CC(C2)CC(c2ccc(Cl)cc2)(C4)C3)cc1Br` [Compound 42, 3-(4-Chloro-phenyl)-adamantane-1-carboxylic acid [2-(3-bromo-4-methoxy-phenyl)-ethyl]-amide]: in test [1] (setting [3]), the concentration for half-maximal inhibition (IC50) was more than 100 µM. Besides, the “Recombinant SK (% inhibition)” value with recombinant human SK was 5%.

For `O=C(NCc1ccc(F)c(C(F)(F)F)c1)C12CC3CC(C1)CC(c1ccc(Cl)cc1)(C3)C2` [Compound 24, 3-(4-Chloro-phenyl)-adamantane-1-carboxylic acid 4-fluoro-3-trifluoromethyl-benzylamide], the IC50 in test [1] (setting [3]) stood at 17 µM. The “Recombinant SK (% inhibition)” value in the test on recombinant human SK is given as 20%.

Consider `CC(=O)C12CC3CC(C1)CC(c1ccc(Cl)cc1)(C3)C2` [Compound 127, 1-[3-(4-Chloro-phenyl)-adamantan-1-yl]-ethanone], for which the IC50 in test [1] (setting [3]) came out at 6 µM; in test [2] (setting [4]) it was 16 µM.

Take `O=C(NCCc1ccc(Oc2ccccc2)cc1)C12CC3CC(C1)CC(c1ccc(Cl)cc1)(C3)C2` [Compound 47, 3-(4-Chloro-phenyl)-adamantane-1-carboxylic acid [2-(4-phenoxy-phenyl)-ethyl]-amide]: the 50% inhibitory concentration (IC50) in test [1] (setting [3]) was found to be 16 µM. Further, the “Recombinant SK (% inhibition)” value in the test on recombinant human SK came to 26%.

As to `O=C(/C=C/c1ccc(Cl)nc1)C12CC3CC(C1)CC(c1ccc(Cl)cc1)(C3)C2` [Compound 134, 1-[3-(4-Chloro-phenyl)-adamantan-1-yl]-3-(6-chloro-pyridin-3-yl)-propenone], the IC50 in test [1] (setting [3]) was 16 µM. In addition, the “Recombinant SK (% inhibition)” value in the test with recombinant human SK is on record as 52%.

For the compound `NCc1c(Cl)c(Cl)c(Cl)c(CNC(=O)C23CC4CC(C2)CC(c2ccc(Cl)cc2)(C4)C3)c1Cl` [Compound 27, 3-(4-Chloro-phenyl)-adamantane-1-carboxylic acid 3-aminomethyl-2,4,5,6-tetrachloro-benzylamide], the IC50 in test [1] (setting [3]) came out at 8 µM. Also, in the test with recombinant human SK, the “Recombinant SK (% inhibition)” value was determined as 50%.

`CC(N)C12CC3CC(CC(c4ccc(Cl)cc4)(C3)C1)C2` (stereo not shown) [Compound 91, 1-[3-(4-Chloro-phenyl)-adamantan-1-yl]-ethylamine]: the results for the IC50 in test [1] (setting [3]) and in test [2] (setting [4]) were 5 µM and 4 µM, respectively.

For the compound `CN1CCC(NC(=O)C23CC4CC(CC(C4)C2)C3)CC1` [Compound 50, Adamantane-1-carboxylic acid (1-methyl-piperidin-4-yl)-amide], the concentration for half-maximal inhibition (IC50) in test [1] (setting [3]) is 181 µM. Further, in the test on recombinant human SK, the “Recombinant SK (% inhibition)” value is on record as 0%.

With `O=C(NCc1ccc(F)cc1Cl)C12CC3CC(C1)CC(c1ccc(Cl)cc1)(C3)C2` [Compound 25, 3-(4-Chloro-phenyl)-adamantane-1-carboxylic acid 2-chloro-4-fluoro-benzylamide], the half-maximal inhibitory concentration (IC50) in test [1] (setting [3]) stood at 87 µM. The “Recombinant SK (% inhibition)” value in the test with recombinant human SK is on record as 47%.

Turning to `CC(C)NC(C)C12CC3CC(CC(c4ccc(Cl)cc4)(C3)C1)C2` (stereo not shown) [Compound 92, {1-[3-(4-Chloro-phenyl)-adamantan-1-yl]-ethyl}-isopropyl-amine], the IC50 in test [1] (setting [3]) was determined as 2 µM; in test [2] (setting [4]) it was 6 µM.

`O=C(NC1CC1)C12CC3CC(C1)CC(c1ccc(Cl)cc1)(C3)C2` [Compound 2, 3-(4-Chloro-phenyl)-adamantane-1-carboxylic acid cyclopropylamide]: the IC50 in test [1] (setting [3]) came to 20 µM. For the same compound, the “Recombinant SK (% inhibition)” value in the test on recombinant human SK worked out at 0%.

As to `O=C(/C=C/c1ccc(Cl)cc1)C12CC3CC(C1)CC(c1ccc(Cl)cc1)(C3)C2` [Compound 130, 3-(4-Chloro-phenyl)-1-[3-(4-chloro-phenyl)-adamantan-1-yl]-propenone], the concentration for half-maximal inhibition (IC50) in test [1] (setting [3]) was 7 µM. In addition, the “Recombinant SK (% inhibition)” value in the test with recombinant human SK was determined as 38%.

On to `O=C(Nc1ccc(O)cc1)C12CC3CC(CC(C3)C1)C2` [Compound 5, Adamantane-1-carboxylic acid (4-hydroxy-phenyl)-amide], for which the IC50 in test [2] (setting [4]) came to 30 µM. Besides, the “Recombinant SK (% inhibition)” value in the test with recombinant human SK is 100%.

For the compound `O=C(NCCc1ccc2c(c1)OCO2)C12CC3CC(C1)CC(c1ccc(Cl)cc1)(C3)C2` [Compound 45, 3-(4-Chloro-phenyl)-adamantane-1-carboxylic acid (2-benzo[1,3]dioxol-5-yl-ethyl)-amide], in test [1] (setting [3]), the concentration for half-maximal inhibition (IC50) was found to be 17 µM. Moreover, the “Recombinant SK (% inhibition)” value with recombinant human SK amounted to 64%.

On to `O=C(NCc1cc(F)cc(C(F)(F)F)c1)C12CC3CC(C1)CC(c1ccc(Cl)cc1)(C3)C2` [Compound 18, 3-(4-Chloro-phenyl)-adamantane-1-carboxylic acid 3-fluoro-5-trifluoromethyl-benzylamide], for which, in test [1] (setting [3]), the IC50 was determined as 19 µM. In the test on recombinant human SK, the “Recombinant SK (% inhibition)” value turned out to be 0%.

On to `CN1CCCC1CCNCC12CC3CC(C1)CC(c1ccc(Cl)cc1)(C3)C2` (stereo not shown) [Compound 86, [3-(4-Chloro-phenyl)-adamantan-1-ylmethyl]-[2-(1-methyl-pyrrolidin-2-yl)-ethyl]-amine], for which the IC50 in test [1] (setting [3]) stood at 5 µM. Further, in the test on recombinant human SK, the “Recombinant SK (% inhibition)” value is given as 6%.

In the case of `O=C(O)C12CC3CC(C1)CC(c1ccc(F)cc1)(C3)C2` [Compound 122, 3-(4-Fluoro-phenyl)-adamantane-1-carboxylic acid], the half-inhibitory concentration (IC50) amounted to 155 µM in test [1] (setting [3]) and 182 µM in test [2] (setting [4]).

In the case of `CC(NC1CCN(C)CC1)C12CC3CC(CC(c4ccc(F)cc4)(C3)C1)C2` (stereo not shown) [Compound 106, {1-[3-(4-Fluoro-phenyl)-adamantan-1-yl]-ethyl}-(1-methyl-piperidin-4-yl)-amine], the results for the IC50 in test [1] (setting [3]) and in test [2] (setting [4]) were 2 µM and 6 µM, respectively.

For the compound `CC(NC(=O)C12CC3CC(C1)CC(c1ccc(Cl)cc1)(C3)C2)c1ccc(Cl)cc1` (stereo not shown) [Compound 28, 3-(4-Chloro-phenyl)-adamantane-1-carboxylic acid [1-(4-chloro-phenyl)-ethyl]-amide], the half-inhibitory concentration (IC50) in test [1] (setting [3]) turned out to be 64 µM. In the test with recombinant human SK, the “Recombinant SK (% inhibition)” value turned out to be 6%.

Regarding `CS(=O)(=O)c1ccc(CNC(=O)C23CC4CC(C2)CC(c2ccc(Cl)cc2)(C4)C3)cc1` [Compound 30, 3-(4-Chloro-phenyl)-adamantane-1-carboxylic acid 4-methanesulfonyl-benzylamide], the IC50 in test [1] (setting [3]) came to 14 µM. For the same compound, in the test with recombinant human SK, the “Recombinant SK (% inhibition)” value was found to be 1%.
